According to publication PMC3820767, “Turning Defense into Offense: Defensin Mimetics as Novel Antibiotics Targeting Lipid II” (PLoS Pathogens, 2013):
≈ marks a conversion by molar mass, not a printed value.

What was measured:
[1] = Surface Plasmon Resonance binding to immobilized 3-Lipid II; conditions: SPR; for Binding on Lipid II?: Table S3, initial determination at 10 µM; for Kd: immobilized 3-Lipid II
Outline: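 Binding was measured by Surface Plasmon Resonance on a BIAcore T100 instrument at 25°C. Peptides were injected over the sensor flow-cells at 30 µl/min in running buffer of 10 mM HEPES, 150 mM NaCl, 0.05% surfactant P20, pH 7.4 (±3 mM EDTA) with 10% DMSO. Control flow-cell signals were subtracted, surfaces were regenerated with 50 mM NaOH, and isotherms were fitted with BIAcore software.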

[2] = Cytotoxicity by MTT assay; assay type: cell-based, human; conditions: human, Caco-2 cells; Table S3; No = not cytotoxic; read-out: cytotoxic for Caco II (C50% survival)
[3] = system: Staphylococcus aureus ATCC 29213; assay: Antibacterial killing, 96-well turbidimetric (modified vCC) assay; assay type: cell-based; conditions: for active against S.aureus (IC100%): Table S3, concentration at which 100% killing occurred, no bacterial regrowth, No = not active; for Bacterial Killing S. aureus: concentration resulting in 100% killing after 30 min exposure, modified vCC assay
Outline: (§1)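 For the S. pneumoniae strains, MIC values follow CLSI broth microdilution standards. The staphylococcal and E. coli killing assay instead pre-incubated bacteria with compound for 30 min in 10 mM phosphate buffer containing 5% DMSO before adding 2× Mueller-Hinton medium, monitoring growth over 12 hours.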

[4] = system: Escherichia coli ATCC 25922; assay: as above; assay type: cell-based; conditions: for active against E.coli (IC100%): Table S3, concentration at which 100% killing occurred, no bacterial regrowth, No = not active; for Bacterial Killing E. coli: concentration resulting in 100% killing after 30 min exposure, modified vCC assay
Outline: as §1

[5] = system: Staphylococcus aureus ATCC 29213; assay: Antagonization of defensin antibacterial activity by 3-Lipid II; assay type: cell-based; conditions: 50 µM defensin pre-incubated with 3-Lipid II at 1:1 molar ratio
Method: Antagonization of the antibacterial activity of defensins against Staphylococcus aureus ATCC 29213 was carried out in a 96-well turbidimetric assay essentially as described previously. Defensins (50 µM final concentration) were pre-incubated with 3-Lipid II at 1∶1, 1∶2.5 and 1∶5 defensin: Lipid II molar ratios for 30 min at RT. Following incubation, solutions were diluted two-fold in ten steps and bacteria were added. Defensin activity was neutralized by the addition of Mueller Hinton broth. Bacterial growth was monitored for 12 hours and data were analyzed as described.

[6] = system: Staphylococcus aureus MMX100-ATCC 29213; assay: Broth microdilution susceptibility testing (CLSI); assay type: cell-based
Method: (§2) The antibacterial activity of defensin mimetics against Staphylococcus aureus ATCC 29213 and Escherichia coli 25922 was carried out in a 96-well turbidimetric assay essentially as described previously with the following modifications: bacteria were exposed for 30 min to compounds in 10 mM phosphate buffer containing 5% DMSO prior to addition of 2× Muller-Hinton medium. Bacterial growth was monitored for 12 hours and data were analyzed as described. Determination of MICs was performed by Micromyx, LLC (Kalamazoo, Michigan) according to CLSI standards.

[7] = system: Escherichia coli MMX102-ATCC 25922; assay: Broth microdilution susceptibility testing (CLSI); assay type: cell-based
Method: as §2

[8] = system: Pseudomonas aeruginosa MMX103-ATCC 27853; assay: Broth microdilution susceptibility testing (CLSI); assay type: cell-based
Method: as §2

[9] = system: Staphylococcus aureus (MRSA) MMX757; assay: Broth microdilution susceptibility testing (CLSI); assay type: cell-based
Method: as §2

[10] = system: Streptococcus pneumoniae MMX1195-ATCC 49619; assay: Broth microdilution susceptibility testing (CLSI); assay type: cell-based
Method: as §2

[11] = system: Enterococcus faecalis (VRE) MMX848; assay: Broth microdilution susceptibility testing (CLSI); assay type: cell-based
Method: as §2

[12] = system: Enterococcus faecalis MMX101-ATCC 29212; assay: Broth microdilution susceptibility testing (CLSI); assay type: cell-based
Method: as §2

Jurkat = assay: Cytotoxicity by MTT assay; assay type: cell-based, human
Caco-2 = assay: Cytotoxicity by MTT assay; assay type: cell-based, human
[13] = system: Streptococcus pneumonia (PRSP) MMX884; assay: Broth microdilution susceptibility testing (CLSI); assay type: cell-based, Streptococcus pneumoniae
Method: as §2

Compound	Binding on Lipid II? [1]	IC50 [2]	active against S.aureus (IC100%) [3]	active against E.coli (IC100%) [4]	antagonization of bactericidal activity by Lipid II [5]	MIC Staphylococcus aureus 100-29213 [6]	MIC Escherichia coli 102-25922 [7]	MIC Pseudomonas aeruginosa 103-27853 [8]	MIC Staphylococcus aureus (MRSA) 757-NA [9]	MIC Streptococcus pneumoniae 1195-49619 [10]	MIC Enterococcus faecalis (VRE) 848-NA [11]	MIC Enterococcus faecalis 101-29212 [12]	IC50 (Jurkat)	Kd [1]	IC50 (Caco-2)	MIC Streptococcus pneumonia (PRSP) 884-NA [13]	Bacterial Killing S. aureus [3]	Bacterial Killing E. coli [4]
OCC1c2ccccc2-c2ccccc21 [Compound 4121-0081, 9H-fluoren-9-ylmethanol]	No	202 µM	No	No														
HNP-1: chemically synthesized wild-type human alpha-defensin Human Neutrophil peptide-1					partly antagonized by one order of magnitude													
CN(C)c1ccc(/C=C/c2cc(C(C)(C)C)[o+]c(C(C)(C)C)c2)cc1 [Compound 1493-0289, 2,6-di-tert-butyl-4-[(E)-2-[4-(dimethylamino)phenyl]ethenyl]-1$l^4-pyran-1-ylium]	Yes		3,9 µM	125 µM		1 mg/L	>8 mg/L	>8 mg/L	2 mg/L	16 mg/L	4 mg/L	2 mg/L	41.7 µM	4.26 µM	6.8 µM	16 mg/L	3.9 µM	125 µM
CC[n+]1c(/C=C/C=C2C=C(/C=C/N(C)c3ccccc3)CC(C)(C)C/2)sc2ccccc21.[I-] [Compound 5107930, 2-[(1E)-3-[(1E)-5,5-dimethyl-3-[(E)-2-[methyl(phenyl)amino]ethenyl]cyclohex-2-en-1-ylidene]prop-1-en-1-yl]-3-ethyl-1,3-benzothiazol-3-ium iodide]	Yes			125 µM		16 mg/L	>16 mg/L	>16 mg/L	16 mg/L	>64 mg/L	16 mg/L	16 mg/L	> 223 µM	3.64 µM	27.9 µM	>64 mg/L	23.4 µM	125 µM
Oc1ccc2ccccc2c1C(c1ccc(Cl)cc1)c1c(O)ccc2ccccc12 [Compound 363003]	Yes		3,9 µM	No		1 mg/L (≈ 2.43 µM)	>32 mg/L	>32 mg/L	1 mg/L (≈ 2.43 µM)	8 mg/L (≈ 19.5 µM)	1 mg/L (≈ 2.43 µM)	1 mg/L (≈ 2.43 µM)	12.7 µM	39.5 µM	3.5 µM	16 mg/L (≈ 38.9 µM)	3.9 µM	>500 µM
